Assay results published in publication PMC2819846 (Mutation research, 2008).
Where two headings read alike, the source gives them in different places.

Assays:
Salmonella TA100 = assay: Salmonella plate-incorporation mutagenicity assay, strain TA100; assay type: cell-based
Salmonella = conditions: cited from earlier work
[1] = test system: DNA from Salmonella TA100; assay: Abasic sites by aldehydic-site assay in DNA of treated TA100; assay type: cell-based; conditions: DMSO 5.9 ± 0.33
Salmonella TA98 = assay: Salmonella plate-incorporation mutagenicity assay, strain TA98, with S9 mix; assay type: cell-based
Salmonella TA104 = assay: Salmonella plate-incorporation mutagenicity assay, strain TA104, with S9 mix; assay type: cell-based
strain TA100 = assay type: cell-based, Salmonella; conditions: TA100 liquid-suspension; for Percent survival: DMSO 100
[2] = test system: DNA from Salmonella TA100; assay: Stable DNA adducts by 32P-postlabeling in DNA of treated TA100; assay type: cell-based; conditions: DMSO 0.024 ± 0.000

## O[C@@H]1C=Cc2c(ccc3ccc4ccccc4c23)[C@H]1O (racemic) [B[c]P 3,4-diol, (± )-trans-3,4-Dihydrobenzo[c]phenanthrene 3,4-diol]
Salmonella TA100; TA100 +S9, Test 1, 2 µg/plate, zero-dose 99/110/110
  Rev/plate: 694 rev/plate
Salmonella TA100; TA100 +S9, Test 1, 5 µg/plate, zero-dose 99/110/110
  Rev/plate: 1002 rev/plate
Salmonella TA100; TA100 +S9, Test 1, 10 µg/plate, zero-dose 99/110/110
  Rev/plate: 1067 rev/plate
Salmonella TA100; TA100 +S9, Test 1, 20 µg/plate, zero-dose 99/110/110
  Rev/plate: 942 rev/plate
Salmonella TA100; TA100 +S9, Test 1, 40 µg/plate, zero-dose 99/110/110
  Rev/plate: 381 rev/plate
Salmonella TA100; TA100 +S9, Test 1, 80 µg/plate, zero-dose 99/110/110
  Rev/plate: 100 rev/plate
Salmonella TA100; TA100 +S9, Test 2, 0.5 µg/plate, zero-dose 84/78/80
  Rev/plate: 151/162
Salmonella TA100; TA100 +S9, Test 2, 1 µg/plate, zero-dose 84/78/80
  Rev/plate: 244/241
Salmonella TA100; TA100 +S9, Test 2, 2.5 µg/plate, zero-dose 84/78/80
  Rev/plate: 533/604
Salmonella TA100; TA100 +S9, Test 2, 5 µg/plate, zero-dose 84/78/80
  Rev/plate: 598/153
Salmonella TA100; TA100 +S9, Test 3, 0.5 µg/plate, zero-dose 127/118/125
  Rev/plate: 335/357
Salmonella TA100; TA100 +S9, Test 3, 1 µg/plate, zero-dose 127/118/125
  Rev/plate: 474/494
Salmonella TA100; TA100 +S9, Test 3, 2.5 µg/plate, zero-dose 127/118/125
  Rev/plate: 848/945
Salmonella TA100; TA100 +S9, Test 3, 5 µg/plate, zero-dose 127/118/125
  Rev/plate: 1216/1218
Salmonella TA100; TA100 +S9, Test 4, 0.5 µg/plate, zero-dose 112/140/115
  Rev/plate: 328/304
Salmonella TA100; TA100 +S9, Test 4, 1 µg/plate, zero-dose 112/140/115
  Rev/plate: 613/577
Salmonella TA100; TA100 +S9, Test 4, 2.5 µg/plate, zero-dose 112/140/115
  Rev/plate: 938/941
Salmonella TA100; TA100 +S9, Test 4, 5 µg/plate, zero-dose 112/140/115
  Rev/plate: 1117/1140
Salmonella TA100; plate-incorporation, +S9
  Mutagenic potency, Revertants/µg ± S.E., TA100: 268 ± 46 rev/µg
  Mutagenicity call TA100: (+) (Called mutagenic (+) based on showing reproducible, dose-related increases in rev/plate that reached or exceeded 2-fold relative to zero-dose controls)
Salmonella
  Mutagenicity in Salmonella (early studies): mutagenic
[1]; TA100, 2 µg/ml
  Abasic sites/10^5 nucleotides ± S.E: 4.2 ± 0.16 sites/10^5 nucleotides
[1]; TA100, 5 µg/ml
  Abasic sites/10^5 nucleotides ± S.E: 5.3 ± 0.27 sites/10^5 nucleotides
Salmonella TA98; TA98 +S9, Test 1, 2 µg/plate, zero-dose 33/40/39
  Rev/plate: 47 rev/plate
Salmonella TA98; TA98 +S9, Test 1, 5 µg/plate, zero-dose 33/40/39
  Rev/plate: 100 rev/plate
Salmonella TA98; TA98 +S9, Test 1, 10 µg/plate, zero-dose 33/40/39
  Rev/plate: 120 rev/plate
Salmonella TA98; TA98 +S9, Test 1, 20 µg/plate, zero-dose 33/40/39
  Rev/plate: 226 rev/plate
Salmonella TA98; TA98 +S9, Test 1, 40 µg/plate, zero-dose 33/40/39
  Rev/plate: 303 rev/plate
Salmonella TA98; TA98 +S9, Test 1, 80 µg/plate, zero-dose 33/40/39
  Rev/plate: 417 rev/plate
Salmonella TA98; TA98 +S9, Test 2, 5 µg/plate, zero-dose 43/41/30
  Rev/plate: 120/112
Salmonella TA98; TA98 +S9, Test 2, 10 µg/plate, zero-dose 43/41/30
  Rev/plate: 180/199
Salmonella TA98; TA98 +S9, Test 2, 20 µg/plate, zero-dose 43/41/30
  Rev/plate: 310/260
Salmonella TA98; TA98 +S9, Test 2, 40 µg/plate, zero-dose 43/41/30
  Rev/plate: 460/414
Salmonella TA98; TA98 +S9, Test 2, 80 µg/plate, zero-dose 43/41/30
  Rev/plate: 492/423
Salmonella TA98; TA98 +S9, Test 3, 5 µg/plate, zero-dose 49/50/50
  Rev/plate: 145/173
Salmonella TA98; TA98 +S9, Test 3, 10 µg/plate, zero-dose 49/50/50
  Rev/plate: 238/242
Salmonella TA98; TA98 +S9, Test 3, 20 µg/plate, zero-dose 49/50/50
  Rev/plate: 350/328
Salmonella TA98; TA98 +S9, Test 3, 40 µg/plate, zero-dose 49/50/50
  Rev/plate: 458/504
Salmonella TA98; TA98 +S9, Test 3, 80 µg/plate, zero-dose 49/50/50
  Rev/plate: 509/597
Salmonella TA98; plate-incorporation, +S9
  Mutagenic potency, Revertants/µg ± S.E., TA98: 11.1 ± 3.0 rev/µg
  Mutagenicity call TA98: (+) (Called mutagenic (+) based on showing reproducible, dose-related increases in rev/plate that reached or exceeded 2-fold relative to zero-dose controls)
Salmonella TA104; TA104 +S9, Test 1, 0.5 µg/plate, zero-dose 379/400/370
  Rev/plate: 770/707
Salmonella TA104; TA104 +S9, Test 1, 1 µg/plate, zero-dose 379/400/370
  Rev/plate: 1007/1137
Salmonella TA104; TA104 +S9, Test 1, 2.5 µg/plate, zero-dose 379/400/370
  Rev/plate: 1618/1616
Salmonella TA104; TA104 +S9, Test 1, 5 µg/plate, zero-dose 379/400/370
  Rev/plate: 1925/2036
Salmonella TA104; TA104 +S9, Test 3, 0.5 µg/plate, zero-dose 402/395/336
  Rev/plate: 663/615
Salmonella TA104; TA104 +S9, Test 3, 1 µg/plate, zero-dose 402/395/336
  Rev/plate: 923/920
Salmonella TA104; TA104 +S9, Test 3, 2.5 µg/plate, zero-dose 402/395/336
  Rev/plate: 1368/1509
Salmonella TA104; TA104 +S9, Test 3, 5 µg/plate, zero-dose 402/395/336
  Rev/plate: 1781/1775
Salmonella TA104; TA104 +S9, Test 4, 0.5 µg/plate, zero-dose 482/455/462
  Rev/plate: 655/635
Salmonella TA104; TA104 +S9, Test 4, 1 µg/plate, zero-dose 482/455/462
  Rev/plate: 913/888
Salmonella TA104; TA104 +S9, Test 4, 2.5 µg/plate, zero-dose 482/455/462
  Rev/plate: 1375/1312
Salmonella TA104; TA104 +S9, Test 4, 5 µg/plate, zero-dose 482/455/462
  Rev/plate: 1807/1818
Salmonella TA104; plate-incorporation, +S9
  Mutagenic potency, Revertants/µg ± S.E., TA104: 552 ± 62 rev/µg
  Mutagenicity call TA104: (+) (Called mutagenic (+) based on showing reproducible, dose-related increases in rev/plate that reached or exceeded 2-fold relative to zero-dose controls)
Strain TA100; 2 µg/ml
  Percent survival: 56%
Strain TA100; 5 µg/ml
  Fold increase in mutant frequency relative to DMSO-treated cells: 23.4 fold
  Percent survival: 20%
Strain TA100; 5 µg/ml, DMSO 0.8
  Rev/10^6 survivors: 18.7 Rev/10^6 survivors
[2]; TA100, 2 µg/ml
  Stable adducts/10^8 nucleotides ± S.E: 5.900 ± 0.230 adducts/10^8 nucleotides
[2]; TA100, 5 µg/ml
  Stable adducts/10^8 nucleotides ± S.E: 4.500 ± 0.034 adducts/10^8 nucleotides
